Measured values: US10916331B2, “Predicting drug-target interactions and uses for drug repositioning and repurposing” (GEORGETOWN UNIVERSITY, priority 2015, dated 2021)

Key:
[1] = molecular target: T1, ABL1(E255K)-phosphorylated (Homo sapiens, UniProt P00519, E255K); test: Kinomescan active site-directed competition binding assay; settings: MBZ at 10 μM, lower = stronger hit, read-out: Percent Control at 10 μM
T1 construct: purchased Discoverx (Kinomescan); host or cells: E. coli BL21-derived host (T7 phage) or HEK-293
Procedure: (§1) Kinase assays were performed using Kinomescan, by Discoverx, CA, USA and Caliper LabChip 3000 by Caliper Life sciences, USA as described previously. The determination of MBZ thermodynamic binding affinities (Kd) to kinase targets predicted by RepurposeVS was performed by using active site-directed competition binding. Kinase-tagged T7 phage strains were grown in parallel in 24-well blocks in an E. coli host derived from the BL21 strain. E. coli bacteria were grown to log-phase and infected with T7 phage from a frozen stock (multiplicity of infection=0.4) and incubated with shaking at 32° C. until lysis (90-150 minutes). The lysates were centrifuged (6,000×g) and filtered (0.2 μm sieves) to remove cell debris. The remaining kinases were produced in HEK-293 cells and subsequently tagged with DNA for qPCR detection. […] The liganded beads were blocked with excess biotin and washed with blocking buffer (SeaBlock (Pierce), 1% BSA, 0.05% Tween 20, 1 mM DTT) to remove unbound ligand and to reduce non-specific phage binding. Binding reactions were assembled by combining kinases, control liganded affinity beads, and mebendazole in 1× binding buffer (20% SeaBlock, 0.17×PBS, 0.05% Tween 20, 6 mM DTT). Mebendazole was prepared as 40× stocks in 100% DMSO and directly diluted into the assay. All reactions were performed in polypropylene 384-well plates in a final volume of 0.04 ml. The assay plates were incubated at room temperature with shaking for 1 hour and the affinity beads were washed with wash buffer (lx PBS, 0.05% Tween 20). […] The kinase concentration in the eluates was measured by qPCR. […] The amount of kinase captured in test versus control samples were measured by using a quantitative, precise and ultra-sensitive qPCR method that detects the associated DNA label. Using (13), the primary screen binding interactions are reported as ‘% Ctrl’ (Percent kinase remaining activity), where lower numbers indicate stronger hits. In a similar manner, binding constants (Kd) for mebendazole-kinase interactions are calculated by measuring the amount of kinase captured as a function of the mebendazole concentration in a dose response manner. […] Binding constants (Kd) were calculated with a standard dose-response curve (drug dose (x-axis)−qPCR signal (y-axis)) using the Hill equation in (14) with the Hill Slope set to −1.

[2] = molecular target: T2, ABL1(T315I)-phosphorylated (Homo sapiens, UniProt P00519, T315I); test: as above; settings: MBZ at 10 μM, lower = stronger hit, read-out: Percent Control at 10 μM
T2 construct: purchased Discoverx (Kinomescan); host or cells: E. coli BL21-derived host (T7 phage) or HEK-293
Procedure: as §1

ABL1-nonphosphorylated = molecular target: T3, ABL1-nonphosphorylated (Homo sapiens, UniProt P00519); test: as above; settings: MBZ at 10 μM, lower = stronger hit, read-out: Percent Control at 10 μM
T3 construct: purchased Discoverx (Kinomescan); host or cells: E. coli BL21-derived host (T7 phage) or HEK-293
Procedure: as §1

ABL1-phosphorylated = molecular target: T4, ABL1-phosphorylated (Homo sapiens, UniProt P00519); test: as above
T4 construct: purchased Discoverx (Kinomescan); host or cells: E. coli BL21-derived host (T7 phage) or HEK-293
Procedure: as §1

CDK7 = molecular target: T5, CDK7 (Homo sapiens, UniProt P50613); test: as above
T5 construct: purchased Discoverx (Kinomescan); host or cells: E. coli BL21-derived host (T7 phage) or HEK-293
Procedure: as §1

CSNK1D = molecular target: T6, CSNK1D (Homo sapiens, UniProt P48730); test: as above; settings: MBZ at 10 μM, lower = stronger hit, read-out: Percent Control at 10 μM
T6 construct: purchased Discoverx (Kinomescan); host or cells: E. coli BL21-derived host (T7 phage) or HEK-293
Procedure: as §1

DYRK1A = molecular target: T7, DYRK1A (Homo sapiens, UniProt Q13627); test: as above; settings: MBZ at 10 μM, lower = stronger hit, read-out: Percent Control at 10 μM
T7 construct: purchased Discoverx (Kinomescan); host or cells: E. coli BL21-derived host (T7 phage) or HEK-293
Procedure: as §1

DYRK1B = molecular target: T8, DYRK1B (Homo sapiens, UniProt Q9Y463); test: as above
T8 construct: purchased Discoverx (Kinomescan); host or cells: E. coli BL21-derived host (T7 phage) or HEK-293
T8 sequence (Q9Y463 whole entry): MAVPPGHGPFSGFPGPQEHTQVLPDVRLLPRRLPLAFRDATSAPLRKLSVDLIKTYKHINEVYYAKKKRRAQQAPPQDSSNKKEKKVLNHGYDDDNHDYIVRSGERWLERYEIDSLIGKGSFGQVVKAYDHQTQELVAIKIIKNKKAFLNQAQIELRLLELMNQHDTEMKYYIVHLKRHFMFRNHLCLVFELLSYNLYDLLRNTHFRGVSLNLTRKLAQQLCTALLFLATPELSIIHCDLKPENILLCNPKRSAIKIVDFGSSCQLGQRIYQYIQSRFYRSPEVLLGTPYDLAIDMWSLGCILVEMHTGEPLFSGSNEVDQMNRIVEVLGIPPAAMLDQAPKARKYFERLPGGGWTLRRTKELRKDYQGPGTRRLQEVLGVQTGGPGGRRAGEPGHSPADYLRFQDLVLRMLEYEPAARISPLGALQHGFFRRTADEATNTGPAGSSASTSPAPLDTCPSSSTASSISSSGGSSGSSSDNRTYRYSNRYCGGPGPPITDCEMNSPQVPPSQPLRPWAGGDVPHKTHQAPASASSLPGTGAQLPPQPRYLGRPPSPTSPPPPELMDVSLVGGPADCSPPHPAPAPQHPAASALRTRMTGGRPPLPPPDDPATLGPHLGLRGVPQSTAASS
Procedure: as §1

GSK3B = molecular target: T9, GSK3B (Homo sapiens, UniProt P49841); test: as above; settings: MBZ at 10 μM, lower = stronger hit, read-out: Percent Control at 10 μM
T9 construct: purchased Discoverx (Kinomescan); host or cells: E. coli BL21-derived host (T7 phage) or HEK-293
Procedure: as §1

JAK3 = molecular target: T10, JAK3 (Homo sapiens, UniProt P52333); test: as above; settings: MBZ at 10 μM, lower = stronger hit, read-out: Percent Control at 10 μM
T10 construct: purchased Discoverx (Kinomescan); host or cells: E. coli BL21-derived host (T7 phage) or HEK-293
Procedure: as §1

JNK1 = molecular target: T11, JNK1 (Homo sapiens, UniProt P45983); test: as above; settings: MBZ at 10 μM, lower = stronger hit, read-out: Percent Control at 10 μM
T11 construct: purchased Discoverx (Kinomescan); host or cells: E. coli BL21-derived host (T7 phage) or HEK-293
Procedure: as §1

JNK2 = molecular target: T12, JNK2 (Homo sapiens, UniProt P45984); test: as above
T12 construct: purchased Discoverx (Kinomescan); host or cells: E. coli BL21-derived host (T7 phage) or HEK-293
Procedure: as §1

JNK3 = molecular target: T13, JNK3 (Homo sapiens, UniProt P53779); test: as above
T13 construct: purchased Discoverx (Kinomescan); host or cells: E. coli BL21-derived host (T7 phage) or HEK-293
Procedure: as §1

KIT (D816V) = molecular target: T14, KIT (D816V) (Homo sapiens, UniProt P10721, D816V); test: as above; settings: MBZ at 10 μM; listed as 'KIT (D816V)', value in parentheses; read-out: Percent Control at 10 μM
T14 construct: purchased Discoverx (Kinomescan); host or cells: E. coli BL21-derived host (T7 phage) or HEK-293
T14 sequence (P10721 26-976 D816V): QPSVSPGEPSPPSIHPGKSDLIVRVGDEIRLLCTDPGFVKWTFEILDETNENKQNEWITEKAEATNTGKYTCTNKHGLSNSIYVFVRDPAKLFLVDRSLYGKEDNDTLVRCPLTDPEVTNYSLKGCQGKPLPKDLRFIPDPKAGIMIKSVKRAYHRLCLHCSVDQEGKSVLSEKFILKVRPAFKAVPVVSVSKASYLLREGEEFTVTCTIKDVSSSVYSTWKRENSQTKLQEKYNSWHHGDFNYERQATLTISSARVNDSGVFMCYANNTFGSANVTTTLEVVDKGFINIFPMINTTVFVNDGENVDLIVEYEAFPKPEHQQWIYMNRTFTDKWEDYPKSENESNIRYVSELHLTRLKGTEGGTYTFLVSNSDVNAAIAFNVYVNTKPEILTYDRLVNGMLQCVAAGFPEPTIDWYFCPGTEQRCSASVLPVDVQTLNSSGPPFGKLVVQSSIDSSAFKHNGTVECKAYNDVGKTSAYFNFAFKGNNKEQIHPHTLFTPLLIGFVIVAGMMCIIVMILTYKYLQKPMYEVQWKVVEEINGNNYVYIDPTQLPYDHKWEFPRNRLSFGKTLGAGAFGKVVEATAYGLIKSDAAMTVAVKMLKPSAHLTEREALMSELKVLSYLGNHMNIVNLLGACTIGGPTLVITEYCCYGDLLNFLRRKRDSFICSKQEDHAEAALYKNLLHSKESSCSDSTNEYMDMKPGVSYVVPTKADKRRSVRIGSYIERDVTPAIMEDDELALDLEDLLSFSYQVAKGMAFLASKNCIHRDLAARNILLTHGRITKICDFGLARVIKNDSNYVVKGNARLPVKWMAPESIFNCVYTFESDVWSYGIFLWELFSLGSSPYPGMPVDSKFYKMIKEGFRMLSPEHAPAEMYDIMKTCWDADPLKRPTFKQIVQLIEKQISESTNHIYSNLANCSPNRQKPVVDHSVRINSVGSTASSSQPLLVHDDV
Procedure: as §1

KIT = molecular target: T15, KIT (Homo sapiens, UniProt P10721); test: as above; settings: listed as 'KIT (D816V)'
T15 construct: purchased Discoverx (Kinomescan); host or cells: E. coli BL21-derived host (T7 phage) or HEK-293
T15 sequence (P10721 26-976): as the sequence (P10721 26-976 D816V) above, with V791D counted along it
Procedure: as §1

MET = molecular target: T16, MET (Homo sapiens, UniProt P08581); test: as above; settings: MBZ at 10 μM, lower = stronger hit, read-out: Percent Control at 10 μM
T16 construct: purchased Discoverx (Kinomescan); host or cells: E. coli BL21-derived host (T7 phage) or HEK-293
Procedure: as §1

P38-alpha = molecular target: T17, P38-alpha (Homo sapiens, UniProt Q16539); test: as above
T17 construct: purchased Discoverx (Kinomescan); host or cells: E. coli BL21-derived host (T7 phage) or HEK-293
Procedure: as §1

PDGFR-A = molecular target: T18, PDGFR-A (Homo sapiens, UniProt P16234); test: as above
T18 construct: purchased Discoverx (Kinomescan); host or cells: E. coli BL21-derived host (T7 phage) or HEK-293
T18 sequence (P16234 24-1089): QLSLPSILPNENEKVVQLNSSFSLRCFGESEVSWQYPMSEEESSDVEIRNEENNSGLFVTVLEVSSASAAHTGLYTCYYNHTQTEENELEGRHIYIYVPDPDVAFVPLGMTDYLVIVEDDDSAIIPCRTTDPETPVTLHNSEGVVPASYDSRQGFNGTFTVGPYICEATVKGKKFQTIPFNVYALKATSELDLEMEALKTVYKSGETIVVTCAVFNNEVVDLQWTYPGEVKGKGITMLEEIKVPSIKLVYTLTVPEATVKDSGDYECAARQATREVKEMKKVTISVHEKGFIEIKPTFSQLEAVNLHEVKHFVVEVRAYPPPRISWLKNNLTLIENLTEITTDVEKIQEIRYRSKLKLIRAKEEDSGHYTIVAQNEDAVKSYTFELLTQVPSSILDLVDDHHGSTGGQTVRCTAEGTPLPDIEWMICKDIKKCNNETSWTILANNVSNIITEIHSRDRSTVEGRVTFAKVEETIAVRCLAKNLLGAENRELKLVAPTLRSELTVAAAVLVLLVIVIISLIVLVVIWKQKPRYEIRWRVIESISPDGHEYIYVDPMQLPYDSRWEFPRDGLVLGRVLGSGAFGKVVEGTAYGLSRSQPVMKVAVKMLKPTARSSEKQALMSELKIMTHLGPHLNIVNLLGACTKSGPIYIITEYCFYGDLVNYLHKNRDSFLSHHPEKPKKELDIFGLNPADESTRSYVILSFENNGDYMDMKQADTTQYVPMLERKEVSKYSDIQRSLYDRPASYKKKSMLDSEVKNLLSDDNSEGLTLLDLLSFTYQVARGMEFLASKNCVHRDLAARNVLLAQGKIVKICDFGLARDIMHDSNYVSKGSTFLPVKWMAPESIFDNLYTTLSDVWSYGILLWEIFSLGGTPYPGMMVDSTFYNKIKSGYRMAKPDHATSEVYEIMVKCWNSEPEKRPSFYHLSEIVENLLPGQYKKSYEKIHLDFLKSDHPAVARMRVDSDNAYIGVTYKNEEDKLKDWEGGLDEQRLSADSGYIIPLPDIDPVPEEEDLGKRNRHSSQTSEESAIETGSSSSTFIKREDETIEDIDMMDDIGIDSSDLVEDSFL
Procedure: as §1

PDGFR-B = molecular target: T19, PDGFR-B (Homo sapiens, UniProt P09619); test: as above
T19 construct: purchased Discoverx (Kinomescan); host or cells: E. coli BL21-derived host (T7 phage) or HEK-293
T19 sequence (P09619 33-1106): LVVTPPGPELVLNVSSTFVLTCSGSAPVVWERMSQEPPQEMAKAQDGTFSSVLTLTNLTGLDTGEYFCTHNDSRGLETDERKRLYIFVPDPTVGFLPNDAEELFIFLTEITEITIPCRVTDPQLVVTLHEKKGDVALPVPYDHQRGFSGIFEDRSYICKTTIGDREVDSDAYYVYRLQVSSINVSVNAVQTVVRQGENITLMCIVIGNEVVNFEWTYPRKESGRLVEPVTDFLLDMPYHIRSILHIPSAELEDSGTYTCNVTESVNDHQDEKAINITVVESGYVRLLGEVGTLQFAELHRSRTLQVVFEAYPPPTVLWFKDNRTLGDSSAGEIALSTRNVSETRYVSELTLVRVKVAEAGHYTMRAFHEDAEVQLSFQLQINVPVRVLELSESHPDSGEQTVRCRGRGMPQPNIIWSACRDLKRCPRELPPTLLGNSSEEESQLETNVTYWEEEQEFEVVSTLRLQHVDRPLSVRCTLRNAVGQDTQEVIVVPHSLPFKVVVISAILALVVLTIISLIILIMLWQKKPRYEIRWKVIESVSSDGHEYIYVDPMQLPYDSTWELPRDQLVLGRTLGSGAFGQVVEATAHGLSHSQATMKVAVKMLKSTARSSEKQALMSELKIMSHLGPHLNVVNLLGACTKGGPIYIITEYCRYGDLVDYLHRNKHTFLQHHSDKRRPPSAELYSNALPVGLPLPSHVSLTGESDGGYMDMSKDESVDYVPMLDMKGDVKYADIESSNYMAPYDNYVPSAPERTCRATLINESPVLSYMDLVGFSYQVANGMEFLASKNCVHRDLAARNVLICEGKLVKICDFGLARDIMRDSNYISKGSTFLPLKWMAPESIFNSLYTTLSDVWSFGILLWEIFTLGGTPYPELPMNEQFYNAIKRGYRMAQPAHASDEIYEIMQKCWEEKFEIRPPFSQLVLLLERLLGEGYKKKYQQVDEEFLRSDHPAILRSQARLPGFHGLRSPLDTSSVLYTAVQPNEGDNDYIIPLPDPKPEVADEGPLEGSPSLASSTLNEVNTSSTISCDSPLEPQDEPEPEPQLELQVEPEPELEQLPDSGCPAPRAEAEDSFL
Procedure: as §1

PIK3CG = molecular target: T20, PIK3CG (Homo sapiens, UniProt P48736); test: as above; settings: MBZ at 10 μM, lower = stronger hit, read-out: Percent Control at 10 μM
T20 construct: purchased Discoverx (Kinomescan); host or cells: E. coli BL21-derived host (T7 phage) or HEK-293
Procedure: as §1

SRC = molecular target: T21, SRC (Homo sapiens, UniProt P12931); test: as above; settings: MBZ at 10 μM, lower = stronger hit, read-out: Percent Control at 10 μM
T21 construct: purchased Discoverx (Kinomescan); host or cells: E. coli BL21-derived host (T7 phage) or HEK-293
Procedure: as §1

ULK2 = molecular target: T22, ULK2 (Homo sapiens, UniProt Q8IYT8); test: as above; settings: MBZ at 10 μM, lower = stronger hit, read-out: Percent Control at 10 μM
T22 construct: purchased Discoverx (Kinomescan); host or cells: E. coli BL21-derived host (T7 phage) or HEK-293
Procedure: as §1

VEGFR-2 = molecular target: T23, VEGFR-2 (Homo sapiens, UniProt P35968); test: as above
T23 construct: purchased Discoverx (Kinomescan); host or cells: E. coli BL21-derived host (T7 phage) or HEK-293
T23 sequence (P35968 20-1356): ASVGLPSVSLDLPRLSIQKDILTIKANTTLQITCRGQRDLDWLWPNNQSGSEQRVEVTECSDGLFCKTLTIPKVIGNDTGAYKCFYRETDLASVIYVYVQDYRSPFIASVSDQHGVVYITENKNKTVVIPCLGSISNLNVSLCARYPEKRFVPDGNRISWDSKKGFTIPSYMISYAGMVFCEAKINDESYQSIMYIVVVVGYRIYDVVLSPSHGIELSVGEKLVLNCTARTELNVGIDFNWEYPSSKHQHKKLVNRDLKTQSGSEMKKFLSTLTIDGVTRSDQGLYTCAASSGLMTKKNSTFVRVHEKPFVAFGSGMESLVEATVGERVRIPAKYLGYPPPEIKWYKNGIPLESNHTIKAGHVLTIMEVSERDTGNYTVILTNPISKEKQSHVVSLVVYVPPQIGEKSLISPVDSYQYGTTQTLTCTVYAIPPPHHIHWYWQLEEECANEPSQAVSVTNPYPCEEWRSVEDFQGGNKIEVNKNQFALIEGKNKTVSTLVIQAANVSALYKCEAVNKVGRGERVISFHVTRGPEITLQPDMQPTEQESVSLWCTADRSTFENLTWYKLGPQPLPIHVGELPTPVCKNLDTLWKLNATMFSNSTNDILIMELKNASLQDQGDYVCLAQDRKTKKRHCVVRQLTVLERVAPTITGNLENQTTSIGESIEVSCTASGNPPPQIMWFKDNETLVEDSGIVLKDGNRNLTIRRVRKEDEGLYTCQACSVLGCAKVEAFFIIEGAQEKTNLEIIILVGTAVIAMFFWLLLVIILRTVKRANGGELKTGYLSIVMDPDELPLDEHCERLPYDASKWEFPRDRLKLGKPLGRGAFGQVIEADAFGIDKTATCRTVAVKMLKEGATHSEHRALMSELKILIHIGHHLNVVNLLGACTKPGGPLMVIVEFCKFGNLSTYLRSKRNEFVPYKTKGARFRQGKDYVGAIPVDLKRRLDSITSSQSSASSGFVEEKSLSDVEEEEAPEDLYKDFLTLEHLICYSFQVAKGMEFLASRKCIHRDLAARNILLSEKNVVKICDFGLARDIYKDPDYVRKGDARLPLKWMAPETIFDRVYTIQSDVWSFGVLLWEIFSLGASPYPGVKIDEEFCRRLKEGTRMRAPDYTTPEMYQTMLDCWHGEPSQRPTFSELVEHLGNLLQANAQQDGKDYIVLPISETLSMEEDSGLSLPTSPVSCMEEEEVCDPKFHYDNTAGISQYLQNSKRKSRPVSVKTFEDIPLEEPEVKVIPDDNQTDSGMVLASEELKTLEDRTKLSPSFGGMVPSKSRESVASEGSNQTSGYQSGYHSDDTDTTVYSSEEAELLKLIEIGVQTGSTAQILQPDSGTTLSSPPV
Procedure: Kinase-tagged T7 phage strains were grown in parallel in 24-well blocks in an E. coli host derived from the BL21 strain. […] The remaining kinases were produced in HEK-293 cells and subsequently tagged with DNA for qPCR detection. […] The liganded beads were blocked with excess biotin and washed with blocking buffer (SeaBlock (Pierce), 1% BSA, 0.05% Tween 20, 1 mM DTT) to remove unbound ligand and to reduce non-specific phage binding. […] All reactions were performed in polypropylene 384-well plates in a final volume of 0.04 ml. […] The kinase concentration in the eluates was measured by qPCR.
An 11-point 3-fold serial dilution of each test compound was prepared in 100% DMSO at 100× final test concentration and subsequently diluted to 1× in the assay (final DMSO concentration=1%).

hookworm tubulin = settings: background statement; cited from earlier work
mammalian tubulin = settings: background statement; cited from earlier work
[3] = 11-point dose response, read-out: Binding Affinity (Kd)
[4] = MBZ at 10 μM, lower = stronger hit, read-out: Percent Control at 10 μM

remaining binding at 10 µM [1]: 2.2%
remaining binding at 10 µM [2]: 3.2%
remaining binding at 10 µM (ABL1-nonphosphorylated): 2%
Kd (ABL1-phosphorylated; [3]): 120 nM
remaining binding at 10 µM (ABL1-phosphorylated; [4]): 0.9%
Kd (CDK7; [3]): 390 nM
remaining binding at 10 µM (CDK7; [4]): 11%
remaining binding at 10 µM (CSNK1D): 36%
remaining binding at 10 µM (DYRK1A): 34%
Kd (DYRK1B; [3]): 340 nM
remaining binding at 10 µM (DYRK1B; [4]): 5.6%
remaining binding at 10 µM (GSK3B): 35%
remaining binding at 10 µM (JAK3): 29%
remaining binding at 10 µM (JNK1): 14%
Kd (JNK2; [3]): 1090 nM
remaining binding at 10 µM (JNK2; [4]): 9.6%
Kd (JNK3; [3]): 410 nM
remaining binding at 10 µM (JNK3; [4]): 3%
remaining binding at 10 µM (KIT (D816V)): 33%
remaining binding at 10 µM (KIT; MBZ at 10 μM, value outside parentheses, read-out: Percent Control at 10 μM): 7.4%
Kd (KIT; [3]): 750 nM
remaining binding at 10 µM (MET): 32%
Kd (P38-alpha; [3]): 1660 nM
remaining binding at 10 µM (P38-alpha; [4]): 17%
Kd (PDGFR-A; [3]): 820 nM
remaining binding at 10 µM (PDGFR-A; [4]): 7.8%
Kd (PDGFR-B; [3]): 660 nM
remaining binding at 10 µM (PDGFR-B; [4]): 3.2%
remaining binding at 10 µM (PIK3CG): 18%
remaining binding at 10 µM (SRC): 34%
remaining binding at 10 µM (ULK2): 30%
Kd (VEGFR-2; [3]): 3.6 µM
remaining binding at 10 µM (VEGFR-2; [4]): 30%
SMILES: COC(=O)Nc1nc2ccc(C(=O)c3ccccc3)cc2[nH]1 [MBZ, mebendazole]
inhibition of hookworm tubulin (hookworm tubulin): potent nanomolar inhibition
potency on mammalian tubulin relative to hookworm tubulin (fold less) (mammalian tubulin): 1000 ×
